Experimental data reported in article PMC6450621, “Changes of drug pharmacokinetics mediated by downregulation of kidney organic cation transporters Mate1 and Oct2 in a rat model of hyperuricemia” (PLoS ONE, 2019).
Values joined by “and” are separate entries in the source; they are usually repeats but may differ in a detail not shown here. Equal values may be shown once.

Columns and labels:
[1] = in vivo; conditions: rat, plasma, intravenous
Description: (§1) Rats were anesthetized with pentobarbital, and the bladder was cannulated with polyethylene tubing (inside diameter 0.5 mm, outside diameter 0.8 mm). […] Blood was drawn through the jugular vein, and plasma was obtained by centrifugation at 3,000 rpm for 10 min at 4°C. Urine was collected at the designated times. […] All samples were stored at -80°C until measurement.
(§2) If necessary, plasma and urine were diluted 10- to 100-fold and 10- to 10000-fold with saline, respectively, for high-performance liquid chromatography (HPLC) or liquid chromatography/tandem mass spectrometry (LC-MS/MS) measurement. […] Prepared samples were mixed for 1 min and centrifuged at 15,000 rpm for 5 min at 4°C. The resultant supernatant was used for LC-MS/MS analysis. The LC-MS/MS system consisted of a triple-quadrupole mass spectrometer (API 3200^TM, SCIEX, Foster City, CA) coupled with an ultrafast liquid chromatography system (LC-20AD, Shimadzu, Kyoto, Japan). […] For metformin, the mobile phase consisted of 0.1% formic acid and acetonitrile (30 : 70), and the flow rate was 0.4 mL/min.
(§3) The plasma concentration-time data were analyzed by non-compartmental analysis. The area under the plasma concentration-time curve (AUC0-4) was obtained by application of the trapezoidal rule from time 0 to 4 h. AUC from 0 to infinity (AUCinf) was estimated by extrapolation to infinity.

[2] = metformin; used for control and hyperuricemic rats; cited from earlier work
[3] = Pharmacokinetic study after intravenous administration in control and hyperuricemic rats (plasma, urine, kidney); conditions: for Kp, kidney: 4 h after iv metformin 30 mg/kg; for CL renal / concentration at 0 min / concentration at 0.5 min / concentration at 2 min / concentration at 5 min / concentration at 30 min / concentration at 60 min / AUC(0-t) / AUC(0-inf) / dose excreted at 10 min / dose excreted at 20 min / dose excreted at 30 min / dose excreted at 60 min / dose excreted at 120 min / dose excreted at 240 min / dose excreted: rat; for CL renal: plasma and urine, CLR; for CL renal / AUC(0-t) / AUC(0-inf): iv; for concentration at 0 min / concentration at 0.5 min / concentration at 2 min / concentration at 5 min / concentration at 30 min / concentration at 60 min / AUC(0-t) / AUC(0-inf): plasma; for concentration at 0 min / concentration at 0.5 min / concentration at 2 min / concentration at 5 min / concentration at 30 min / concentration at 60 min / dose excreted at 10 min / dose excreted at 20 min / dose excreted at 30 min / dose excreted at 60 min / dose excreted at 120 min / dose excreted at 240 min / dose excreted: intravenous; for concentration at 0 min / concentration at 0.5 min / concentration at 2 min / concentration at 5 min / concentration at 30 min / concentration at 60 min: Plasma concentration; for AUC(0-inf): AUCinf; for dose excreted at 10 min / dose excreted at 20 min / dose excreted at 30 min / dose excreted at 60 min / dose excreted at 120 min / dose excreted at 240 min / dose excreted: urine; for dose excreted at 10 min / dose excreted at 20 min / dose excreted at 30 min / dose excreted at 60 min / dose excreted at 120 min / dose excreted at 240 min: Urinary recovery (cumulative); for dose excreted: Urinary Recovery;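 on all read-outs here: Pentobarbital-anesthetized rats with cannulated bladder, jugular plasma, timed urine and saline kidney homogenate assayed by HPLC or LC-MS/MS, Kp as kidney over plasma level at 4 h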
Description: as §1, §2, §3

[4] = control rats, 0 min after iv metformin 30 mg/kg or cephalexin 10 mg/kg, individual rat
[5] = control rats, 0.5 min after iv metformin 30 mg/kg or cephalexin 10 mg/kg (creatinine endogenous), individual rat
[6] = control rats, 2 min after iv metformin 30 mg/kg or cephalexin 10 mg/kg, individual rat
[7] = control rats, 5 min after iv metformin 30 mg/kg or cephalexin 10 mg/kg, individual rat
[8] = control rats, 30 min after iv metformin 30 mg/kg or cephalexin 10 mg/kg (creatinine endogenous), individual rat
[9] = control rats, 60 min after iv metformin 30 mg/kg or cephalexin 10 mg/kg (creatinine endogenous), individual rat
[10] = control rats, iv metformin 30 mg/kg, individual rat
[11] = hyperuricemic rats, 0 min after iv metformin 30 mg/kg or cephalexin 10 mg/kg, individual rat
[12] = hyperuricemic rats, 0.5 min after iv metformin 30 mg/kg or cephalexin 10 mg/kg (creatinine endogenous), individual rat
[13] = hyperuricemic rats, 2 min after iv metformin 30 mg/kg or cephalexin 10 mg/kg, individual rat
[14] = hyperuricemic rats, 30 min after iv metformin 30 mg/kg or cephalexin 10 mg/kg (creatinine endogenous), individual rat
[15] = hyperuricemic rats, 60 min after iv metformin 30 mg/kg or cephalexin 10 mg/kg (creatinine endogenous), individual rat
[16] = hyperuricemic rats, iv metformin 30 mg/kg, individual rat
[17] = 30 mg/kg, control rats, iv metformin 30 mg/kg, individual rat
[18] = 30 mg/kg, hyperuricemic rats, iv metformin 30 mg/kg, individual rat
[19] = control rats, iv metformin 30 mg/kg or cephalexin 10 mg/kg, mean n=3
[20] = hyperuricemic rats, iv metformin 30 mg/kg or cephalexin 10 mg/kg, mean n=3

SMILES: CN(C)C(=N)N=C(N)N [Metformin, metformin]
- concentration at 15 min [1]: 67.3 µM
- concentration at 120 min [1]: 3.94 µM
- fu [2]: 0.85 [27]
- Plasma concentration [3, 4]: 750 µM and 1198 µM
- Plasma concentration [3, 5]: 571 µM and 817 µM
- Plasma concentration [3, 6]: 293 µM and 304 µM
- Plasma concentration [3, 7]: 154 µM and 164 µM
- Urinary recovery (cumulative) ([3]; control rats, 20 min after iv metformin 30 mg/kg, individual rat): 26.0 % of dose and 21.2 % of dose and 46.7 % of dose
- Plasma concentration [3, 8]: 33.2 µM and 34.5 µM
- Urinary recovery (cumulative) ([3]; control rats, 30 min after iv metformin 30 mg/kg, individual rat): 43.9 % of dose and 27.9 % of dose and 51.8 % of dose
- Plasma concentration [3, 9]: 13.0 µM and 12.8 µM
- Urinary recovery (cumulative) ([3]; control rats, 60 min after iv metformin 30 mg/kg, individual rat): 44.6 % of dose and 64.4 % of dose
- Urinary recovery (cumulative) ([3]; control rats, 120 min after iv metformin 30 mg/kg, individual rat): 63.3 % of dose and 72.5 % of dose
- Urinary recovery (cumulative) ([3]; control rats, 240 min after iv metformin 30 mg/kg, individual rat): 72.0 % of dose and 76.4 % of dose
- Kp, kidney ([3]; control rats, individual rat): 2.8 and 35.8 and 11.4
- AUC0-4 [3, 10]: 5208 µM·min and 5490 µM·min
- AUCinf [3, 10]: 5393 µM·min and 5550 µM·min
- CLR [3, 10]: 23.6 mL/min/kg and 23.7 mL/min/kg
- Plasma concentration [3, 11]: 796 µM and 923 µM
- Plasma concentration [3, 12]: 780 µM and 862 µM
- Plasma concentration [3, 13]: 336 µM and 407 µM
- Plasma concentration ([3]; hyperuricemic rats, 5 min after iv metformin 30 mg/kg or cephalexin 10 mg/kg, individual rat): 86 µM and 154 µM and 193 µM
- Urinary recovery (cumulative) ([3]; hyperuricemic rats, 10 min after iv metformin 30 mg/kg, individual rat): 16.7 % of dose and 11.6 % of dose
- Urinary recovery (cumulative) ([3]; hyperuricemic rats, 20 min after iv metformin 30 mg/kg, individual rat): 26.1 % of dose and 20.0 % of dose
- Plasma concentration [3, 14]: 54.0 µM and 44.1 µM
- Urinary recovery (cumulative) ([3]; hyperuricemic rats, 30 min after iv metformin 30 mg/kg, individual rat): 31.6 % of dose and 27.5 % of dose
- Plasma concentration [3, 15]: 26.4 µM and 27.5 µM
- Urinary recovery (cumulative) ([3]; hyperuricemic rats, 60 min after iv metformin 30 mg/kg, individual rat): 41.1 % of dose and 37.0 % of dose
- Urinary recovery (cumulative) ([3]; hyperuricemic rats, 120 min after iv metformin 30 mg/kg, individual rat): 49.6 % of dose and 47.8 % of dose
- Urinary recovery (cumulative) ([3]; hyperuricemic rats, 240 min after iv metformin 30 mg/kg, individual rat): 63.2 % of dose and 59.1 % of dose
- Kp, kidney ([3]; hyperuricemic rats, individual rat): 94.7 and 122.2 and 54.1
- AUC0-4 [3, 16]: 7033 µM·min and 4854 µM·min
- AUCinf [3, 16]: 7159 µM·min and 4997 µM·min
- CLR [3, 16]: 14.3 mL/min/kg and 23.7 mL/min/kg
- (CLR/fu)/CLInulin Fold Change ([3]; hyperuricemic vs control rats): 1.00
- AUC0-4 Fold Change ([3]; hyperuricemic vs control rats): 1.10
- AUCinf Fold Change ([3]; hyperuricemic vs control rats): 1.10
- CLR Fold Change ([3]; hyperuricemic vs control rats): 0.80
- Kp, kidney Fold Change ([3]; hyperuricemic vs control rats): 5.44
- Urinary Recovery Fold Change ([3]; hyperuricemic vs control rats): 0.85
- CL renal [3, 17]: 21.7 mL/min/kg
- CL renal [3, 18]: 16.8 mL/min/kg
- CL renal ([3]; control rats, iv metformin 30 mg/kg or cephalexin 10 mg/kg, creatinine endogenous, mean n=3): 23 mL/min/kg
- CL renal ([3]; hyperuricemic rats, iv metformin 30 mg/kg or cephalexin 10 mg/kg, creatinine endogenous, mean n=3): 18.3 mL/min/kg
- concentration at 0 min [3, 4]: 1270 µM
- concentration at 0 min ([3]; control rats, 0 min after iv metformin 30 mg/kg or cephalexin 10 mg/kg, mean n=3): 1070 µM
- concentration at 0.5 min [3, 5]: 871 µM
- concentration at 0.5 min ([3]; control rats, 0.5 min after iv metformin 30 mg/kg or cephalexin 10 mg/kg (creatinine endogenous), mean n=3): 753 µM
- concentration at 2 min [3, 6]: 385 µM
- concentration at 2 min ([3]; control rats, 2 min after iv metformin 30 mg/kg or cephalexin 10 mg/kg, mean n=3): 328 µM
- concentration at 5 min [3, 7]: 159 µM
- concentration at 5 min ([3]; control rats, 5 min after iv metformin 30 mg/kg or cephalexin 10 mg/kg, mean n=3): 159 µM
- concentration at 30 min [3, 8]: 37 µM
- concentration at 30 min ([3]; control rats, 30 min after iv metformin 30 mg/kg or cephalexin 10 mg/kg (creatinine endogenous), mean n=3): 34.9 µM
- concentration at 60 min [3, 9]: 14.4 µM
- concentration at 60 min ([3]; control rats, 60 min after iv metformin 30 mg/kg or cephalexin 10 mg/kg (creatinine endogenous), mean n=3): 13.4 µM
- concentration at 0 min [3, 11]: 676 µM
- concentration at 0 min ([3]; hyperuricemic rats, 0 min after iv metformin 30 mg/kg or cephalexin 10 mg/kg, mean n=3): 798 µM
- concentration at 0.5 min [3, 12]: 578 µM
- concentration at 0.5 min ([3]; hyperuricemic rats, 0.5 min after iv metformin 30 mg/kg or cephalexin 10 mg/kg (creatinine endogenous), mean n=3): 740 µM
- concentration at 2 min [3, 13]: 267 µM
- concentration at 2 min ([3]; hyperuricemic rats, 2 min after iv metformin 30 mg/kg or cephalexin 10 mg/kg, mean n=3): 337 µM
- concentration at 5 min ([3]; hyperuricemic rats, 5 min after iv metformin 30 mg/kg or cephalexin 10 mg/kg, mean n=3): 144 µM
- concentration at 30 min [3, 14]: 30 µM
- concentration at 30 min ([3]; hyperuricemic rats, 30 min after iv metformin 30 mg/kg or cephalexin 10 mg/kg (creatinine endogenous), mean n=3): 42.7 µM
- concentration at 60 min [3, 15]: 20.6 µM
- concentration at 60 min ([3]; hyperuricemic rats, 60 min after iv metformin 30 mg/kg or cephalexin 10 mg/kg (creatinine endogenous), mean n=3): 24.9 µM
- AUC(0-t) ([3]; 30 mg/kg, AUC0-4, control rats, iv metformin 30 mg/kg, individual rat): 98.2 µM·h
- AUC(0-t) ([3]; 30 mg/kg, AUC0-4, hyperuricemic rats, iv metformin 30 mg/kg, individual rat): 107 µM·h
- AUC(0-inf) [3, 17]: 99.5 µM·h
- AUC(0-inf) [3, 18]: 109 µM·h
- AUC(0-t) ([3]; AUC0-4, control rats, iv metformin 30 mg/kg or cephalexin 10 mg/kg, creatinine endogenous, mean n=3): 92.2 µM·h
- AUC(0-t) ([3]; AUC0-4, hyperuricemic rats, iv metformin 30 mg/kg or cephalexin 10 mg/kg, creatinine endogenous, mean n=3): 102 µM·h
- AUC(0-inf) [3, 19]: 94 µM·h
- AUC(0-inf) [3, 20]: 104 µM·h
- dose excreted at 10 min ([3]; 30 mg/kg, control rats, 10 min after iv metformin 30 mg/kg, mean n=3): 17.8%
- dose excreted at 20 min ([3]; 30 mg/kg, control rats, 20 min after iv metformin 30 mg/kg, mean n=3): 31.3%
- dose excreted at 30 min ([3]; 30 mg/kg, control rats, 30 min after iv metformin 30 mg/kg, mean n=3): 41.2%
- dose excreted at 60 min ([3]; 30 mg/kg, control rats, 60 min after iv metformin 30 mg/kg, individual rat): 57.8%
- dose excreted at 60 min ([3]; 30 mg/kg, control rats, 60 min after iv metformin 30 mg/kg, mean n=3): 55.6%
- dose excreted at 120 min ([3]; 30 mg/kg, control rats, 120 min after iv metformin 30 mg/kg, individual rat): 61.5%
- dose excreted at 120 min ([3]; 30 mg/kg, control rats, 120 min after iv metformin 30 mg/kg, mean n=3): 65.7%
- dose excreted at 240 min ([3]; 30 mg/kg, control rats, 240 min after iv metformin 30 mg/kg, individual rat): 75.1%
- dose excreted at 10 min ([3]; 30 mg/kg, hyperuricemic rats, 10 min after iv metformin 30 mg/kg, individual rat): 15.5%
- dose excreted at 10 min ([3]; 30 mg/kg, hyperuricemic rats, 10 min after iv metformin 30 mg/kg, mean n=3): 14.6%
- dose excreted at 20 min ([3]; 30 mg/kg, hyperuricemic rats, 20 min after iv metformin 30 mg/kg, individual rat): 26.9%
- dose excreted at 20 min ([3]; 30 mg/kg, hyperuricemic rats, 20 min after iv metformin 30 mg/kg, mean n=3): 24.3%
- dose excreted at 30 min ([3]; 30 mg/kg, hyperuricemic rats, 30 min after iv metformin 30 mg/kg, individual rat): 35.7%
- dose excreted at 30 min ([3]; 30 mg/kg, hyperuricemic rats, 30 min after iv metformin 30 mg/kg, mean n=3): 31.6%
- dose excreted at 60 min ([3]; 30 mg/kg, hyperuricemic rats, 60 min after iv metformin 30 mg/kg, individual rat): 46%
- dose excreted at 60 min ([3]; 30 mg/kg, hyperuricemic rats, 60 min after iv metformin 30 mg/kg, mean n=3): 41.4%
- dose excreted at 120 min ([3]; 30 mg/kg, hyperuricemic rats, 120 min after iv metformin 30 mg/kg, individual rat): 56.1%
- dose excreted at 120 min ([3]; 30 mg/kg, hyperuricemic rats, 120 min after iv metformin 30 mg/kg, mean n=3): 51.1%
- dose excreted at 240 min ([3]; 30 mg/kg, hyperuricemic rats, 240 min after iv metformin 30 mg/kg, individual rat): 67.5%
- dose excreted at 240 min ([3]; 30 mg/kg, hyperuricemic rats, 240 min after iv metformin 30 mg/kg, mean n=3): 63.3%
- dose excreted [3, 19]: 74.5%
- dose excreted [3, 20]: 63.3%
